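Grown in 96-well plates, cells were treated for 48 hours with each compound at five concentrations. Insufficient inhibition: endpoint recorded as highest concentration tested. At the TGI there is no net growth.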
Columns and labels:
Experiment in all cases: inhibition of tumour cell growth, NCI panel, 48 h
[1] = test system: HCT-116 colon
[2] = test system: HOP-92 NSCLC
[3] = test system: PC-3 prostate
[4] = test system: NCI/ADR-RES ovarian
[5] = test system: U251 CNS
[6] = test system: RXF 393 renal
[7] = test system: HS 578T breast
[8] = test system: HCC-2998 colon
[9] = test system: ACHN renal
[10] = test system: HT29 colon
[11] = test system: TK-10 renal
[12] = test system: SK-OV-3 ovarian
[13] = test system: UO-31 renal
[14] = test system: KM12 colon
[15] = test system: COLO 205 colon
[16] = test system: NCI-H226 lung
[17] = test system: CAKI-1 renal
[18] = test system: SK-MEL-5 melanoma
[19] = test system: NCI-H460 lung
[20] = test system: T-47D breast
[21] = test system: MALME-3M melanoma
[22] = test system: 786-0 renal
[23] = test system: SR leukemia
[24] = test system: HCT-15 colon
[25] = test system: SK-MEL-28 melanoma
[26] = test system: RPMI-8226 leukemia
[27] = test system: A498 renal
[28] = test system: M14 melanoma
[29] = test system: LOX IMVI melanoma
[30] = test system: SF-295 CNS
[31] = test system: OVCAR-3 ovarian
[32] = test system: OVCAR-5 ovarian
[33] = test system: SNB-19 CNS
[34] = test system: NCI-H23 lung
[35] = test system: OVCAR-4 ovarian
[36] = test system: NCI-H522 lung
[37] = test system: UACC-257 melanoma
[38] = test system: SK-MEL-2 melanoma
[39] = test system: SF-268 CNS
[40] = test system: SN12C renal
[41] = test system: EKVX NSCLC
[42] = test system: SNB-75 CNS
[43] = test system: HOP-62 NSCLC
[44] = test system: A549 NSCLC
[45] = test system: IGROV1 ovarian
[46] = test system: OVCAR-8 ovarian
[47] = test system: MDA-MB-435
[48] = test system: SF-539 CNS
[49] = test system: MOLT-4 leukemia
[50] = test system: CCRF-CEM leukemia
[51] = test system: K-562 leukemia
[52] = test system: BT-549 breast
[53] = test system: UACC-62 melanoma
[54] = test system: MCF7 breast
[55] = test system: DU-145 prostate
[56] = test system: MDA-N
[57] = test system: SW-620 colon
[58] = test system: MDA-MB-231 breast

Measured: TGI

ONCCCn1cnc2c(NC3CC3)ncnc21
> 100 µM: all assays above

Nn1c(SCC(=O)O)nc2ccccc2c1=O
not listed: [12] | [43]
> 100 µM: all other assays above

CCn1c(=O)c2cn[nH]c2n(C)c1=O
> 100 µM: all assays above

Reference: PubChem BioAssay (NCI)
